This note sets out measurements from ChEMBL document CHEMBL1201862, “PubChem BioAssay data set” (2004).

Assay [1] concerns the target Tyrosyl-DNA phosphodiesterase 2 (Homo sapiens, UniProt O95551). Briefly: potency against TDP2 phosphodiesterase activity – biochemical, epi absorbance, IC50, dose response (AID 743297).
Assay [2] deals with Serine/threonine-protein kinase Nek2 (Homo sapiens, UniProt P51955). The class given is functional.
Another assay addresses LIM domain kinase 1 (Homo sapiens, UniProt P53667). Briefly: Navigating the Kinome. Panel member name: LIMK1. Format: functional.
Assay [3] deals with Rho-associated protein kinase 2 (Homo sapiens, UniProt O75116). The class given is functional.
Sequence of Rho-associated protein kinase 2 (O75116 whole entry): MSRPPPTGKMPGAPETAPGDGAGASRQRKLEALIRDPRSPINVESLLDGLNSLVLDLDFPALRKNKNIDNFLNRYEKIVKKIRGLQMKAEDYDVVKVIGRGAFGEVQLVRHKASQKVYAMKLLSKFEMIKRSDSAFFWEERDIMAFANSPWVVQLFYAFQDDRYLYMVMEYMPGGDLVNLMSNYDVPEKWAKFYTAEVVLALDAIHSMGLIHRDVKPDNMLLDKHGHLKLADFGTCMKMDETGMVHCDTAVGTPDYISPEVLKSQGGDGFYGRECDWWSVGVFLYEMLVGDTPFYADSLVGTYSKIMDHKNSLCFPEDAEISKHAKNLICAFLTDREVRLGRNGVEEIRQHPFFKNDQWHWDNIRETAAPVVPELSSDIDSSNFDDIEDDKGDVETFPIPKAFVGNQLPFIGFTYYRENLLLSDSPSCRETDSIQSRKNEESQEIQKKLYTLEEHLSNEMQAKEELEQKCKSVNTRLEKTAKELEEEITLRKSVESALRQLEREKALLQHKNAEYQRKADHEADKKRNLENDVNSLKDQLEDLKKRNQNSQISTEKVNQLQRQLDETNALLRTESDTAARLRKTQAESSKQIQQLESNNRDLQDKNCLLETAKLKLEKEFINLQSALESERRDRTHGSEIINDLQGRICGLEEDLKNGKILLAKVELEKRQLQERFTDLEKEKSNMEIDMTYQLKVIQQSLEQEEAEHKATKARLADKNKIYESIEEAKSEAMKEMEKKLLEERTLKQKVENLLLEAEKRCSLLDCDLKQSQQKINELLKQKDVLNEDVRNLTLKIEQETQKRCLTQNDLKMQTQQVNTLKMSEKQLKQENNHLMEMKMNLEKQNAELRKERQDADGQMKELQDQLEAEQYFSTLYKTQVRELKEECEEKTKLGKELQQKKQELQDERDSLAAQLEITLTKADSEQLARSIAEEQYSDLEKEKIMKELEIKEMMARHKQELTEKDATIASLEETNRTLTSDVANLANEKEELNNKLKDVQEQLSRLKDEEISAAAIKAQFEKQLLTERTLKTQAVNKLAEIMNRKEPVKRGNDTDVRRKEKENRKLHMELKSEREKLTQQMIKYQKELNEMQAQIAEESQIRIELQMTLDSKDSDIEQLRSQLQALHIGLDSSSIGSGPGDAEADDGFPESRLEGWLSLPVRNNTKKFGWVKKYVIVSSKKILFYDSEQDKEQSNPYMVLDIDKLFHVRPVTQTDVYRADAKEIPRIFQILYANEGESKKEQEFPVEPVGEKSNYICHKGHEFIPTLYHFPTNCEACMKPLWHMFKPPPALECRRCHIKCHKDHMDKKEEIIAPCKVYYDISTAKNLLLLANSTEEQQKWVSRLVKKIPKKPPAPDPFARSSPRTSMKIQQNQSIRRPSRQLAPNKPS
The target of assay [4] is Mast/stem cell growth factor receptor Kit (Homo sapiens, UniProt P10721). Format: functional.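 Note: KIT entry within a kinase panel assay.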
Sequence of Mast/stem cell growth factor receptor Kit (P10721 whole entry): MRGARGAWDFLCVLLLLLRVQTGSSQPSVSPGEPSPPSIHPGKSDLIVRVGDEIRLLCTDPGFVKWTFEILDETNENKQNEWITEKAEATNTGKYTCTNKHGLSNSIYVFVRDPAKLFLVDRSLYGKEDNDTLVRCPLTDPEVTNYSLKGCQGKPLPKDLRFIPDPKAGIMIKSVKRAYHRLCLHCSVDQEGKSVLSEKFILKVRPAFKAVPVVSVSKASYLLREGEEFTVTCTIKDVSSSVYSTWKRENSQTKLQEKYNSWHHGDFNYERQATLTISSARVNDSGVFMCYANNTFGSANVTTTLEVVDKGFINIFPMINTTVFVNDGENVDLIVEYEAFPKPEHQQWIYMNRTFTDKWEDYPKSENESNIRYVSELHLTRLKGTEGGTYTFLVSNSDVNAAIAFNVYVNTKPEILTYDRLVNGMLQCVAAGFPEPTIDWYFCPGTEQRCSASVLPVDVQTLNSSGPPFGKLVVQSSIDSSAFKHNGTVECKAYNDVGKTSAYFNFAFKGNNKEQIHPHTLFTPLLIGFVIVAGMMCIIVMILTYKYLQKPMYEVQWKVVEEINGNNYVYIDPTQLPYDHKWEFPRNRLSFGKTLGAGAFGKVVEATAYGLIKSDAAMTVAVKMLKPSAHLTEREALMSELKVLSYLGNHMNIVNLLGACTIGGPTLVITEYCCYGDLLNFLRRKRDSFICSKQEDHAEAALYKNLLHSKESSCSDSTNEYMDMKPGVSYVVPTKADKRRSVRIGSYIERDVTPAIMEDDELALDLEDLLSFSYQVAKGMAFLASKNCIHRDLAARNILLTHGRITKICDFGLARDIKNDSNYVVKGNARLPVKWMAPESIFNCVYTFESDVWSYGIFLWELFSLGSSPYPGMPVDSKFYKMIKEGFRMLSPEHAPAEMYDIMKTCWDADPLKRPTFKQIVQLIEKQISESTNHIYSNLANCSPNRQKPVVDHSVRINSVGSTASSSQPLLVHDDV
Assay [5] has as its target MAP/microtubule affinity-regulating kinase 3 (Homo sapiens, UniProt P27448). Format: functional.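 Note: MARK3 affinity measured as one member of a kinome panel.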
For assay [6], the target named is Mitogen-activated protein kinase 10 (Homo sapiens, UniProt P53779). The experiment in a line: Navigating the Kinome. Panel member name: MAPK10. The class given is functional.
Assay [7] in a line: blockers of HIV-1 envelope-mediated cell-cell fusion – cherry-pick, dose response (AID 652057). The class given is functional, cell-based.
Assay [8] is described as follows: off-target signal loss in HeLa-CEM21 co-culture – HeLa F-luc CTL cells, cherry-picked, counter-screen for HIV-1 Env fusion inhibitor project, dose response (AID 652040).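 Note: potency for signal decrease marking cytotoxic or nonspecific inhibition.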 The class given is functional, cell-based.
Another assay has as its system Streptococcus. The experiment in a line: GAS UMAA2166 growth inhibition – luminescence, BacTiterGlo, counter-screen for streptokinase expression inhibitor project, dose response (AID 1915).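 Note: potency for reduction of bacterial viability or growth.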 The class given is functional, organism-based. In general terms: A counterscreen serves to expose hits that act by an unwanted route or on another target.
The target in assay [9] is Mitochondrial peptide methionine sulfoxide reductase (Bos taurus, UniProt P54149). Format: functional.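 Note: absorbance read-out, biochemical high-throughput dose-response screen for MsrA inhibitors, confirmatory; recombinant bovine MsrA coupled to E. coli TrxB with NADPH and selenocystamine; potency is for inhibitors of MsrA activity on DMSO substrate.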
Assay [10] concerns the target Dual specificity tyrosine-phosphorylation-regulated kinase 1A (Rattus norvegicus, UniProt Q63470). The class given is biochemical, Homo sapiens.
The nature of assay [11]: blockers of HIV-1 ZM109 envelope-driven cell-cell fusion – HeLa effector, CEM target cells, luciferase, cherry-pick, dose response (AID 652058).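 Note: luciferase signal from HIV-1 Env mediated cell-cell fusion of effector and target cells.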 Format: functional, cell-based.
A short description of assay [12]: Intein inhibitors as potential Tuberculosis drugs, a cytotoxicity screen. [Related pubchem assays (depositor defined):AID2221, AID2223, AID434968, AID435010, AID449749, AID449750, AID489010]. Format: functional.
For assay [13], the target named is Heat shock protein HSP 90-alpha (Homo sapiens, UniProt P07900). Briefly: Luminescence-based dose response biochemical high throughput screening assay for inhibitors of the Heat Shock Protein 90 (HSP90). [Related pubchem assays: 1831 (Summary AID.), 1846 (Confirmation screen.), 1789 (Primary screen.)].
Assay [14] addresses T1, Heat shock factor protein 1 (Mus musculus, UniProt P38532).
T1 sequence (P38532 whole entry): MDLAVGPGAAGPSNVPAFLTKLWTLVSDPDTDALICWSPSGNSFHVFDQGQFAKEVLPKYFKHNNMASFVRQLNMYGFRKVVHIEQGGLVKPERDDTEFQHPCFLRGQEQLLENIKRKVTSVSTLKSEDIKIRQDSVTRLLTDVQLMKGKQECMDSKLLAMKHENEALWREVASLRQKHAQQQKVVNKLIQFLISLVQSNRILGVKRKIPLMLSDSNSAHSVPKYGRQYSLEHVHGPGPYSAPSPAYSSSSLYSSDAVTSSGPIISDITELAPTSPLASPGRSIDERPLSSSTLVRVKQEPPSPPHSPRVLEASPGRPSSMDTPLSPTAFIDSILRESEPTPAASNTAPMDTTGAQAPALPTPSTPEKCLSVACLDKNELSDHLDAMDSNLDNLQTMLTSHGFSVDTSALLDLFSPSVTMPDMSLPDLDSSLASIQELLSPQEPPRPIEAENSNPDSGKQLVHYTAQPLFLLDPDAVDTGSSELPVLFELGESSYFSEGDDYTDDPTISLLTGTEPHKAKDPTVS
Briefly: decrease of HSF1-responsive luciferase luminescence – cell-based, NIH3T3, dose retest, confirmation (AID 2382).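 Note: NIH3T3 fibroblasts with HSF1-driven luciferase reporter stressed by proteasome inhibitor MG132; luminescence from HSF1-driven luciferase expression after 8 hours of MG132 stress.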 The class given is functional.

The target of another assay is Beta-galactosidase (Escherichia coli, UniProt Q8VNN2). Briefly: detection-enzyme interference by beta-gal modulators – biochemical, E. coli enzyme, set 3, artefact control for CCR6 antagonist project, dose response (AID 504712). The class given is functional.
For another assay, the target named is T2, Hexokinase HKDC1 (Homo sapiens, UniProt Q2TB90).
T2 sequence (Q2TB90 whole entry): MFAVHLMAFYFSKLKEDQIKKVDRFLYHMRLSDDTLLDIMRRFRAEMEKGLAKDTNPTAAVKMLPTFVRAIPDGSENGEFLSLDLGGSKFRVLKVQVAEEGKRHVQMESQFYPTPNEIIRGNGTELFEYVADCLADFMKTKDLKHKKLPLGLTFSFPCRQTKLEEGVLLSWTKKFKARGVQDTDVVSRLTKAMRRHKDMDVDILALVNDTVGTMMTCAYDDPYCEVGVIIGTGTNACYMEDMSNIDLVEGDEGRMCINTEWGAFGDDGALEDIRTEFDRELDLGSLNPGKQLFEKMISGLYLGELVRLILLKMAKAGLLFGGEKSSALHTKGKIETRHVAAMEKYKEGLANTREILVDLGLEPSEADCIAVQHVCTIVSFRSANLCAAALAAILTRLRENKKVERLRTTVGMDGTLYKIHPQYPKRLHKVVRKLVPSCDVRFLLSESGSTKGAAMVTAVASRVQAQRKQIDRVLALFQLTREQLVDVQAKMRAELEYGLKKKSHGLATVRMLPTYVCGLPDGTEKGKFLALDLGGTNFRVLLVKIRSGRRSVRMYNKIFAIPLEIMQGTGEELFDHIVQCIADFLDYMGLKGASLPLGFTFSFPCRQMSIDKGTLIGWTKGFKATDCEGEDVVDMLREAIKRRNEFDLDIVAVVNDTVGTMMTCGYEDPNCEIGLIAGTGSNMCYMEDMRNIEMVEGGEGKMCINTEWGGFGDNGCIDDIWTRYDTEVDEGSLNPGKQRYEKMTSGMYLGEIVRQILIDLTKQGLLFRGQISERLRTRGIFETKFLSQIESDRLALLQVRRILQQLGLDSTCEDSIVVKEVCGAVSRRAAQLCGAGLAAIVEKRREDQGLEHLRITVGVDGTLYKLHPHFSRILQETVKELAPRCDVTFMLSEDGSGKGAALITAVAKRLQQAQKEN
Briefly: inhibition of HKDC1 glucose phosphorylation – biochemical, W721R variant, dose response (AID 504729). The class given is functional.

The next assay addresses Genome polyprotein (dengue virus type 2, UniProt P29990). The experiment in a line: flavivirus cap methylation enzyme inhibition – biochemical, confirmation dose response, primary screen (AID 588689). Format: functional.
Assay [15] can be described thus: M. tuberculosis H37Rv growth inhibitors, H37Rv strain (AID 1626). The class given is functional.
A further assay deals with P388/ADR. The experiment in a line: cells. Format: functional. The settings on record: Mus musculus.
The next assay deals with BJ. Briefly: BJ-TERT-LT-ST fibroblast viability loss – cell-based, RAS-independent, luminescence, dose response (AID 1935).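 Note: BJ fibroblasts immortalized with TERT plus LT and ST oncogenes.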 The class given is functional. The settings on record: Homo sapiens.
The test system of a further assay is SN12K1. The experiment in a line: cells. The class given is functional. Particulars: Homo sapiens.
A further assay concerns P388. The experiment in a line: cells. Format: functional. The settings on record: Mus musculus.

The source made the active and inactive calls.
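Throughout, for CC50: cells exposed to compound for 72 hours before luminescence readout.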

Sequence of Tyrosyl-DNA phosphodiesterase 2 (O95551 whole entry): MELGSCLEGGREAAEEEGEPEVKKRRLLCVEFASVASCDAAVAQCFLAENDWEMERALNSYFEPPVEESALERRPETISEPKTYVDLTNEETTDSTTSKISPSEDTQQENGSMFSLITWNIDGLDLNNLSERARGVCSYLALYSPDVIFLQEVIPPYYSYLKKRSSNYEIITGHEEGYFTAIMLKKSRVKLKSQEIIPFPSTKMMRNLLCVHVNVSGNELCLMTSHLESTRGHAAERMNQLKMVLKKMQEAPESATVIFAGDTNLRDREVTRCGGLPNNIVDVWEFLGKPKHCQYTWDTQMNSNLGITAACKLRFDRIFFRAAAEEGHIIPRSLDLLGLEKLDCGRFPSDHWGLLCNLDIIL
Sequence of MAP/microtubule affinity-regulating kinase 3 (P27448 whole entry): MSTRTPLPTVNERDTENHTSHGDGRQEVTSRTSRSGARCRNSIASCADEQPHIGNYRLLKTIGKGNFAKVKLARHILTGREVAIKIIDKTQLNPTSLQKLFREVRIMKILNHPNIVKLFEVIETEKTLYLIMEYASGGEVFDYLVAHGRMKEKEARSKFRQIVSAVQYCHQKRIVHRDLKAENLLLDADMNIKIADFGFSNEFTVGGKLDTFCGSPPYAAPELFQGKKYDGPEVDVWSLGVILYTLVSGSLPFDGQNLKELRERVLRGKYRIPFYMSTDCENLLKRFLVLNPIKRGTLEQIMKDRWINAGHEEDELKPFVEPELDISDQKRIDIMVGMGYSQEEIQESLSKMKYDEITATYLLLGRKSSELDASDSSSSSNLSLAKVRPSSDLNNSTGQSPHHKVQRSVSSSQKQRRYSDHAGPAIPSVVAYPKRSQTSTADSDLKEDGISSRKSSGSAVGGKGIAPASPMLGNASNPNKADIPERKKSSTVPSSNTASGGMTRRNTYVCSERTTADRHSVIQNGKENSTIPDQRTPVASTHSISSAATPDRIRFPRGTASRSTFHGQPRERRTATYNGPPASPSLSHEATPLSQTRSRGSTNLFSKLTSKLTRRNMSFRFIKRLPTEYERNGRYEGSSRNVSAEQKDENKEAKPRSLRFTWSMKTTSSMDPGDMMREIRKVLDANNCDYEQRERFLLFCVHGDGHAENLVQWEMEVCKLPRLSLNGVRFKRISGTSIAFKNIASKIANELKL
Sequence of Genome polyprotein (P29990 2492-3391 limits assumed): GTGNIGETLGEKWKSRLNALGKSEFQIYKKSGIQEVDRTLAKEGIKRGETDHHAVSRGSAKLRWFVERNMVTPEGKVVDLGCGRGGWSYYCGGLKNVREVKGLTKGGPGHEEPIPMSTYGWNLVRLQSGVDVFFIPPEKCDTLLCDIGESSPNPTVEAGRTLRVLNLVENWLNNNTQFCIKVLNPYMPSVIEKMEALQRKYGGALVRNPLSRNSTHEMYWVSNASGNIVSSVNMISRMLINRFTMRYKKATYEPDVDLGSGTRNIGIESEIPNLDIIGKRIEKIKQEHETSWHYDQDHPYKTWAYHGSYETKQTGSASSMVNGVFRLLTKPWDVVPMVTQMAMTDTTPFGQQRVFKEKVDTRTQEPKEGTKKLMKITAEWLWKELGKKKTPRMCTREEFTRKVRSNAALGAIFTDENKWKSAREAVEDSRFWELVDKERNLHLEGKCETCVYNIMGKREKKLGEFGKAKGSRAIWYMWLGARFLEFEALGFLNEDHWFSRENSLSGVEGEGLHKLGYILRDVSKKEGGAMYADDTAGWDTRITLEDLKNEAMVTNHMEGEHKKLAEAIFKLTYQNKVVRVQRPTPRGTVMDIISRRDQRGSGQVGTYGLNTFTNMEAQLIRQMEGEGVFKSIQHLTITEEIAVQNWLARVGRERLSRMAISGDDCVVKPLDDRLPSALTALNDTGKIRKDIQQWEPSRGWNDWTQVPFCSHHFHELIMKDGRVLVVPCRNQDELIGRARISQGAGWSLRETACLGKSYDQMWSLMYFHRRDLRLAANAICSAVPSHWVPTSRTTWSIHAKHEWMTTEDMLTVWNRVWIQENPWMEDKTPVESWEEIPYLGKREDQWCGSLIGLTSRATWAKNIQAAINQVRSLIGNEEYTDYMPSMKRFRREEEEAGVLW
Sequence of LIM domain kinase 1 (P53667 whole entry, the tested form may be a part): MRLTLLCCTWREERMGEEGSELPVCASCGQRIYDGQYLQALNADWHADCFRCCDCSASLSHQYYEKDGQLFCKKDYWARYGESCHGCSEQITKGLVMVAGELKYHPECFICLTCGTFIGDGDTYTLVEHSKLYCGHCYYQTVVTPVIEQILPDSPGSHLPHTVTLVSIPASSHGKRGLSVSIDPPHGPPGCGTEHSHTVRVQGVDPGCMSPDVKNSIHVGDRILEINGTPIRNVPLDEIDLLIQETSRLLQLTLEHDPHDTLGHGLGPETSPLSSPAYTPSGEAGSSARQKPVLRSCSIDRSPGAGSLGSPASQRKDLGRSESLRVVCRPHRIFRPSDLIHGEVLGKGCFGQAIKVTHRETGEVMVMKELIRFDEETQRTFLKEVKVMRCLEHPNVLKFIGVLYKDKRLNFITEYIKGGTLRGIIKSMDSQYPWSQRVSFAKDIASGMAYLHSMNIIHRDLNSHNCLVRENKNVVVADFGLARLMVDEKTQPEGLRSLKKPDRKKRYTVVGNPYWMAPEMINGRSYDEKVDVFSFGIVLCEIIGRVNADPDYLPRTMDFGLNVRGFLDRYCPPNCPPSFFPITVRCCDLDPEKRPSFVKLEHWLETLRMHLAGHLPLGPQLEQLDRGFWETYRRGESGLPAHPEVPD

For orientation: IC50 means the concentration that gives 50% inhibition. Consider `O=C(Cc1ccccc1)NC1(O)C(=O)c2ccccc2C1=O`, for which the IC50 in assay [1] is 13.2 µM (inactive).
The term Ki denotes a measure of affinity in units of concentration, obtained from inhibition or displacement. `O=C(Nc1cccc(C(F)(F)F)n1)Nc1ccnc2cc(OC(F)F)ccc12`: the Ki (in [2]; at LIM domain kinase 1) was > 3.16 µM (inactive) each time.
As for `CCC1CC(NS(=O)(=O)C2CC2)CC1c1ncc2cnc3[nH]ccc3n12` (centres undefined), the inhibition constant (Ki) in [3] is 0.0126 µM (active); in [4], > 6.31 µM (inactive); in assay [5] it was 0.158 µM (active); in assay [6], > 3.16 µM (inactive).
By AC50 is commonly meant the concentration at which the activity in the assay is half-maximal. One may read the EC50 as the concentration that produces a half-maximal response. One may read the CC50 as the concentration at which the toxic effect on the cells reaches its halfway point. On to `Cc1cc(C)c(S(=O)(=O)/N=C2\C=C(Nc3ccc(C(=O)O)cc3)C(=O)c3ccccc32)c(C)c1`, for which the AC50 is 12.4 µM (active) in assay [7], 17.2 µM (active) in assay [8], 1.8 µM (active) in assay [10] and 6.51 µM (active) in assay [11]. Moreover, the EC50 with Streptococcus is 2.6 µM (active); in assay [14], 6.73 µM (active). Further, the IC50 in assay [9] is 44.8 µM (inactive); in [13], 1.68 µM (active); at Beta-galactosidase it was 36.1 µM (active); at Hexokinase HKDC1 it was 15.2 µM (active); on Genome polyprotein, 21.2 µM (active). Moreover, the cytotoxic concentration (CC50) in [12] is 7.89 µM (active).
In general, GI50 refers to the concentration giving 50% growth inhibition. Consider `COC(=O)c1nc(-c2ccc3c(n2)C(=O)C(=N)C(OC)=C3O)c(N)c(-c2ccc(OC)c(OC)c2O)c1C`, for which the IC50 in [15] is > 100 µM (active). For the same molecule, the figures for the GI50 in the assay with P388/ADR, in the assay with SN12K1 and in the assay on P388 were 1.4 µM (inactive), 0.537 µM (active) and 1.49 µM (inactive), respectively. Also, in the assay on BJ, the EC50 is 10.3 µM (active).
